Experimental data published in patent EP4501112A1, “PLANT DEFENSE ELICITORS” (Globachem NV, priority 2023, dated 2025).
Read-outs that look alike come from different tables or passages of the source.

How the values were obtained:
[1] = system: Phytophthora infestans (PHYTIN); assay: whole plant or invertebrate; format: in vivo; conditions: in Solanum tuberosum, foliar
[2] = system: Maize (cultivar Mofox); assay: Abiotic stress (flooding, drought, daily watered) growth trial on maize, foliar treatment
[3] = system: S. avenae; assay: Aphid survival and sucking on untreated leaves after treating one leaf of Chinese cabbage; format: in vivo; set-up: key to S. avenae sucking: 0=no damage or no sucking observed; 1=some damage or some sucking observed; 3=half leaf eaten or half of aphids sucking the leaf; 5=no leaf left or all insects sucking and reproducing; conditions: for S. avenae sucking: scale 0 - 5
[4] = system: Meligethes Aeneus; assay: Field trial, foliar spray against M. aeneus on oil seed rape; format: in vivo
From the text: DISEASE/[…] Aeneus CROP: Oil seed rape (Brassica napus spp. Campino) APPLICATION: Foliar spray EXPERIMENT/TRIAL PROTOCOL: Foliar spray was applied in the field with a motorized sprayer in spring when the insects appeared on the crop (BBCH 38-41). The trial design consisted of a randomized complete block with 4 replications per treatment. The treated area per plot was 30m^2. Used water volume was 300 L/ha. Evaluation was done by counting adult insects per 25 plants. […] Table 5: Efficacy assessment: % efficacy versus untreated (%UNCK) of M. aeneus on B. napus (field)

[5] = system: Plutella xylostella; assay: P. xylostella survival and leaf damage on untreated leaves after treating one leaf of Chinese cabbage; format: in vivo; set-up: key to P. xylostella leaf damage: 0=no damage or no sucking observed; 1=some damage or some sucking observed; 3=half leaf eaten or half of aphids sucking the leaf; 5=no leaf left or all insects sucking and reproducing; conditions: for P. xylostella leaf damage: damage scale 0 - 5
Experimental: DISEASE/PEST: Plutella xylostella / Myzus persicae CROP: Chinese cabbage (Brassica rapa subsp. Pekinensis) APPLICATION: FOLIAR on one leaf of the plant EXPERIMENT/TRIAL PROTOCOL: […] Leaves were left to dry for 1 hour. P. xylostella or M. persicae were added to clip cages on non-treated leaves 1 hour or 24 hours after the applied treatment wherein those cages restrict the movement of the insects to the other leaves. Table 2. Effect on survival and leaf damage of P. xylostella and […] on untreated leaves of […].

[6] = system: Leptosphaeria maculans; assay: Seed treatment lab trial against Leptosphaeria maculans in oilseed rape seedlings; format: in vivo; conditions: Plenodomus lingam, in Brassica napus, 144 h, 6 days after inoculation, read-out: % Efficacy
From the text: [table] Table 8: Efficacy assessment of fatty acids in seed treatment of Leptosphaeria maculans in oilseed rape (variety Helga)

[7] = system: Fusarium culmorum; assay: whole plant or invertebrate; format: in vivo; conditions: Fusarium culmorum, in Triticum aestivum, 144 h, read-out: % Efficacy
[8] = system: Puccinia triticina; assay: Greenhouse trial, foliar treatment against PUCCTR in wheat
[9] = daily watered (normal) conditions, foliar 65 g/ha
[10] = daily watered (normal) conditions, foliar 325 g/ha
[11] = daily watered (normal) conditions, foliar 650 g/ha
[12] = daily watered (normal) conditions, foliar 1300 g/ha
[13] = drought conditions, foliar 65 g/ha
[14] = drought conditions, foliar 325 g/ha
[15] = drought conditions, foliar 650 g/ha
[16] = drought conditions, foliar 1300 g/ha
[17] = flooding conditions, foliar 65 g/ha
[18] = flooding conditions, foliar 325 g/ha
[19] = flooding conditions, foliar 650 g/ha
[20] = flooding conditions, foliar 1300 g/ha
[21] = 0.78 mg on one leaf, insects added 1h after treatment, 6 DAT
[22] = 0.78 mg on one leaf, insects added 1h after treatment, 24h AT
[23] = 0.78 mg on one leaf, insects added 24 h after treatment, 6 DAT
[24] = 0.78 mg on one leaf, insects added 24 h after treatment, 24h AT

Compound: CCCCCCCCC(=O)O [Pelargonic acid, pelargonic acid]
- % efficacy ([1]; read-out: ASSESSMENT 7 DAI (% efficacy), foliar 0.76 g/ha): 0.2%
- % efficacy ([1]; read-out: ASSESSMENT 7 DAI (% efficacy), foliar 1.14 g/ha): 14%
- % efficacy ([1]; read-out: ASSESSMENT 7 DAI (% efficacy), foliar 1.52 g/ha): 20.1%
- % efficacy ([1]; read-out: ASSESSMENT 7 DAI (% efficacy), foliar 2.66 g/ha): 23%
- % efficacy ([1]; read-out: ASSESSMENT 7 DAI (% efficacy), foliar 3.80 g/ha): 18.6%
- % efficacy ([1]; read-out: ASSESSMENT 7 DAI (% efficacy), foliar 5.32 g/ha): 17.7%
- % efficacy ([1]; read-out: ASSESSMENT 7 DAI (% efficacy), foliar 7.60 g/ha, inoculated 7 days after treatment): 3%
- % efficacy ([1]; read-out: ASSESSMENT 14 DAI (% efficacy), foliar 0.76 g/ha): 0%
- % efficacy ([1]; read-out: ASSESSMENT 14 DAI (% efficacy), foliar 1.14 g/ha): 7.9%
- % efficacy ([1]; read-out: ASSESSMENT 14 DAI (% efficacy), foliar 1.52 g/ha): 22%
- % efficacy ([1]; read-out: ASSESSMENT 14 DAI (% efficacy), foliar 2.66 g/ha): 21.9%
- % efficacy ([1]; read-out: ASSESSMENT 14 DAI (% efficacy), foliar 3.80 g/ha): 7%
- % efficacy ([1]; read-out: ASSESSMENT 14 DAI (% efficacy), foliar 5.32 g/ha): 16.7%
- % efficacy ([1]; read-out: ASSESSMENT 14 DAI (% efficacy), foliar 7.60 g/ha): 5.4%
- % total growth to control [2, 9]: 71%
- ASSESSMENT total growth after 15 days (cm) [2, 9]: 18.4 cm
- % total growth to control [2, 10]: 87%
- ASSESSMENT total growth after 15 days (cm) [2, 10]: 22.5 cm
- % total growth to control [2, 11]: 95%
- ASSESSMENT total growth after 15 days (cm) [2, 11]: 24.8 cm
- % total growth to control [2, 12]: 78%
- ASSESSMENT total growth after 15 days (cm) [2, 12]: 20.3 cm
- % total growth to control [2, 13]: 87%
- ASSESSMENT total growth after 15 days (cm) [2, 13]: 17.4 cm
- % total growth to control [2, 14]: 87%
- ASSESSMENT total growth after 15 days (cm) [2, 14]: 17.6 cm
- % total growth to control [2, 15]: 112%
- ASSESSMENT total growth after 15 days (cm) [2, 15]: 22.2 cm
- % total growth to control [2, 16]: 91%
- ASSESSMENT total growth after 15 days (cm) [2, 16]: 18.2 cm
- % total growth to control [2, 17]: 104%
- ASSESSMENT total growth after 15 days (cm) [2, 17]: 26.3 cm
- % total growth to control [2, 18]: 104%
- ASSESSMENT total growth after 15 days (cm) [2, 18]: 26.1 cm
- % total growth to control [2, 19]: 90%
- ASSESSMENT total growth after 15 days (cm) [2, 19]: 22.6 cm
- % total growth to control [2, 20]: 82%
- ASSESSMENT total growth after 15 days (cm) [2, 20]: 20.7 cm
- S. avenae sucking [3, 21]: 4
- S. avenae sucking [3, 22]: 0
- S. avenae sucking [3, 23]: 1
- S. avenae sucking [3, 24]: 4
- S. avenae survival ([3]; 0.78 mg on one leaf, insects on non-treated leaves, added 24 h after treatment, 6 DAT): Very small colony
- number of S. avenae individuals and sucking ([3]; 0.78mg, insects introduced 24h after treatment to an untreated leaf of the same plant): reduction
- % efficacy versus untreated (%UNCK) of M. aeneus on B. napus (field) ([4]; 650 g/ha, 4DAA): 91 b %
- % efficacy versus untreated (%UNCK) of M. aeneus on B. napus (field) ([4]; 650 g/ha, 8DAA): 89 b %
- % efficacy versus untreated (%UNCK) of M. aeneus on B. napus (field) ([4]; 650 g/ha, 300 L/ha water, 1DAA): 34.60 c %
- % efficacy versus untreated (%UNCK) of M. aeneus on B. napus (field) ([4]; 975 g/ha, 1DAA): 79.25 ab %
- % efficacy versus untreated (%UNCK) of M. aeneus on B. napus (field) ([4]; 975 g/ha, 4DAA): 100 a %
- % efficacy versus untreated (%UNCK) of M. aeneus on B. napus (field) ([4]; 975 g/ha, 8DAA): 100 a %
- P. xylostella leaf damage [5, 21]: 1
- P. xylostella leaf damage [5, 22]: 1
- P. xylostella leaf damage [5, 23]: 5
- P. xylostella leaf damage [5, 24]: 4
- P. xylostella survival ([5]; 0.78 mg on one leaf, insects on non-treated leaves, added 1h after treatment, 6 DAT): growth limited to L3 stage
- larval maturation and leaf damage in P. xylostella ([5]; 0.78mg, insects introduced 1h after treatment to an untreated leaf of the same plant): reduction
- Emax ([6]; seed treatment 0.76 g/ton, % healthy plants vs infected seedlings): 100%
- Emax ([6]; seed treatment 3.04 g/ton): 80%
- Emax ([6]; seed treatment 6.08 g/ton): 80%
- Emax ([6]; seed treatment 7.60 g/ton): 100%
- Emax [7]: 100%
- EFFICACY % ALL LEAV ES ([8]; foliar 1.52 g ai/ha, 13 dai): 18.6%
- EFFICACY % LEAF 1 ([8]; foliar 1.52 g ai/ha, 13 dai): 50.0%
- EFFICACY % LEAF 2 ([8]; foliar 1.52 g ai/ha, 13 dai): 5.9%
- EFFICACY % LEAF 3 ([8]; foliar 1.52 g ai/ha, 13 dai): 5.9%
- EFFICACY % LEAF 4 ([8]; foliar 1.52 g ai/ha, 13 dai): 12.5%
- EFFICACY % ALL LEAV ES ([8]; foliar 7.6 g ai/ha, 21 dai): 23.6%
- EFFICACY % LEAF 1 ([8]; foliar 7.6 g ai/ha, 21 dai): 28.6%
- EFFICACY % LEAF 2 ([8]; foliar 7.6 g ai/ha, 21 dai): 17.9%
- EFFICACY % LEAF 3 ([8]; foliar 7.6 g ai/ha, 21 dai): 29.8%
- EFFICACY % LEAF 4 ([8]; foliar 7.6 g ai/ha, 21 dai): 18.3%
- EFFICACY % ALL LEAV ES ([8]; foliar 95 g ai/ha, 13 dai): 11.3%
- EFFICACY % LEAF 1 ([8]; foliar 95 g ai/ha, 13 dai): 33.3%
- EFFICACY % LEAF 2 ([8]; foliar 95 g ai/ha, 13 dai): 0.0%
- EFFICACY % LEAF 3 ([8]; foliar 95 g ai/ha, 13 dai): 11.8%
- EFFICACY % LEAF 4 ([8]; foliar 95 g ai/ha, 13 dai): 0,0%
- EFFICACY % ALL LEAV ES ([8]; foliar 760 g ai/ha, 13 dai): 30.5%
- EFFICACY % LEAF 1 ([8]; foliar 760 g ai/ha, 13 dai): 66.7%
- EFFICACY % LEAF 2 ([8]; foliar 760 g ai/ha, 13 dai): 11.8%
- EFFICACY % LEAF 3 ([8]; foliar 760 g ai/ha, 13 dai): 0.0%
- EFFICACY % LEAF 4 ([8]; foliar 760 g ai/ha, 13 dai): 43.8%
